39 compounds from patent US6894068B2, “Substituted benzimidazoles as non-nucleoside inhibitors of reverse transcriptase” (The United States of America as represented by the …, priority 1997, dated 2005) can be followed below.

For one series, the system named is HIV-1 WT virus (NL4-3). The experiment in a line: microbe, parasite or virus in culture. It counts as cell-based. The note with it: for EC50 / EC50 (μM): Table 11, CEMSS/NL4-3, NRVC = no reduction in viral CPE; for EC50: read-out: EC50; for inhibitory potency against HIV-1 (CIC50), result in words: CEMSS cell culture, WT virus (NL4-3), relative to parent compounds 1 and 2; for cytotoxicity and anti-viral effect, summary graph, result in words: FIGS. 10-12. The protocol: Evaluation of these compounds for the inhibition of HIV-1 was determined as the fifty percent cell culture inhibitory concentration (CIC50) in CEMSS cell culture with WT virus (NL4-3).
In this Example, the antiviral and cellular toxicity of NNRTIs was investigated, using the cytopathic cell killing assay described by Yang (Yang et al., “Characteristics of a Group of Non-nucleoside Reverse Transcriptase Inhibitors with Structural Diversity and Potent Anti-Human Immunodeficiency Virus Activity,” Leukemia 9:S75-S85 [1995]). Briefly, in this method cells (e.g., the CEM-SS cell line, available from the NIAID AIDS Research and Reference Program [ARRRP]) were seeded at a density of 5×10^3 cells/well, into the wells of a 96-well microtiter plate. The cells were then infected with HIV virus (either mutant or WT), at a multiplicity of infection (MOI) previously determined to provide complete cell killing by 6 days of culture post-infection (e.g., MOI of 0.01-0.05). Each of the HIV isolates was pre-titered to induce equivalent levels of infection based on cell killing or virus production, prior to their use in these assays. A range of test compound concentrations was added to the wells in triplicate (e.g., serial half-log dilutions) to evaluate inhibition of HIV infection. Controls for each assay included drug controls (drug colorimetric control wells), drug cytotoxicity control wells (cells with drug), virus control wells (cells with virus), and cell viability controls (cells only). Positive control drugs (e.g. AZT and ddC) were also run in parallel.
After six days of incubation at 37° C., cell viability was determined spectrophotometrically at 450 nm for each well, using the metabolic reduction of XTT to a soluble colored formazan. (See, Gartner and Popovic, “Virus Isolation and Production, in Aldovini and Walker (eds.), Techniques in HIV Research, Stockton Press, NY, pp. […] [1991]; and Nara and Fischinger, “Quantitative Infectivity Assay for HIV-1 and HIV-2, ” Nature 332:469-470 [1988]).
The in vitro therapeutic index (TI50) was defined as the fold-difference between the EC50 and IC50. The results for the various compounds are included in FIGS. 8 and 19.

Another series addresses HIV-1 WT RT (Human immunodeficiency virus type 1 group M subtype B, UniProt P03366). The experiment in a line: biochemical. The note with it: for inhibition at 10 µM: read-out: % inhibn (10 μM). Format: biochemical.
Where [1] appears, read: Human immunodeficiency virus 1, NL43, CEM-SS.

Values joined by “and” are separate entries in the source; they are usually repeats but may differ in a detail not shown here. Equal values may be shown once. Read-outs that look alike come from different tables or passages of the source.

With `Cc1cccc2c1nc(-c1cccnc1)n2Cc1c(F)cccc1F`, the melting point was 186 to 188 °C.

As for `Fc1cccc(F)c1Cn1c(-c2c(F)cccc2F)nc2cc(Cl)ccc21`, the melting point was 136 °C and 136 to 137 °C. On the same count and under the same terms, the same measure for `CC(C)=CCn1c(-c2c(F)cccc2F)nc2c(C)cccc21` [(X = CH3) R = prenyl, 1-(3,3-dimethylallyl)-2-(2,6-difluorophenyl)-4-methylbenzimidazole]: 78 to 79 °C. As for `CC(=O)OCc1cccc2c1nc(-c1c(F)cccc1F)n2Cc1c(F)cccc1F` [Compound 51, 1-(2,6-difluorobenzyl)-2-(2,6-difluorophenyl)-4-acetoxymethylbenzimidazole], the EC50 in the series with HIV-1 WT virus (NL4-3) (setting [1]) turned out to be 59 nM. Consider `O=Cc1cccc2c1nc(-c1c(F)cccc1F)n2Cc1c(F)cccc1F` [Compound 68, 1-(2,6-Difluorobenzyl)-2-(2,6-difluorophenyl)-benzimidazole-4-carbaldehyde], for which the melting point was 151 to 153 °C. Also, the EC50 with HIV-1 WT virus (NL4-3) (setting [1]) was determined as 120 nM. `COc1cccc2c1nc(C1CC1)n2Cc1c(F)cccc1F` yielded a melting point of 136 to 139 °C.

The compound `C=C(C)c1cccc2c1nc(-c1c(F)cccc1F)n2Cc1c(F)cccc1F` [Compound 66, 1-(2,6-Difluorobenzyl)-2-(2,6-difluorophenyl)-4-isopropenylbenzimidazole] displayed a melting point of 156 to 158 °C. For the same compound, the EC50 in the series with HIV-1 WT virus (NL4-3) (setting [1]) worked out at 1440 nM.

Compound `Cc1cc(C)c2nc(-c3c(F)cccc3F)n(Cc3c(F)cccc3F)c2c1` showed a melting point of 153 to 154 °C. Consider `N#Cc1cccc2c1nc(-c1c(F)cccc1F)n2Cc1c(F)cccc1F` [Compound 60, 1-(2,6-difluorobenzyl)-2-(2,6-difluorophenyl)-4-cyanobenzimidazole], for which, in the series on HIV-1 WT virus (NL4-3) (setting [1]), the half-maximal effective concentration (EC50) was 430 nM. As for `NC(=O)c1cccc2c1nc(-c1c(F)cccc1F)n2Cc1c(F)cccc1F` [Compound 62, 1-(2,6-difluorobenzyl)-2-(2,6-difluorophenyl)benzimidazole-4-carboxylic acid amide], the melting point fell in the range of 260 to 261 °C. In the series with HIV-1 WT virus (NL4-3), the “inhibitory potency against HIV-1 (CIC50), result in words” value (“inhibitory potency” for short) was “clearly detrimental to potency”. Also, the 50% effective concentration (EC50) with HIV-1 WT virus (NL4-3) (setting [1]) worked out at 4900 nM. `Cc1nc2ccccc2n1Cc1c(F)cccc1F` [Compound 35, 1-(2,6-difluorobenzyl)-2-methylbenzimidazole]: the melting point is 99 °C. Regarding `O=C(c1c(F)cccc1F)n1c(-c2c(F)cccc2F)nc2ccccc21` [Compound 47, 1-(2,6-difluorobenzoyl)-2-(2,6-difluorophenyl)benzimidazole], the inhibition at 10 µM on HIV-1 WT RT (Table 2, 10 μM drug, WT RT, rC-dG template primer) is 8%. Also, the “RT inhibition, result in words” value on HIV-1 WT RT (WT RT) was “did not show appreciable RT inhibition activity”.

Turning to `Cc1cccc2c1nc(-c1c(F)cccc1F)n2Cc1c(F)c(F)c(F)c(F)c1F`, the melting point lay in the range of 155 to 156 °C.

The compound `O=S(=O)(c1ccccc1)n1c(-c2c(F)cccc2F)nc2ccccc21` showed a melting point of 104 to 106 °C.

Consider `OCc1cccc2c1nc(-c1c(F)cccc1F)n2Cc1c(F)cccc1F` [Compound 67, 1-(2,6-Difluorobenzyl)-2-(2,6-difluorophenyl)-4-hydroxymethylbenzimidazole], for which the concentration giving a half-maximal response (EC50) in the series on HIV-1 WT virus (NL4-3) (setting [1]) came out at 23 nM.

`Cc1cccc2c1nc(-c1c(F)cccc1F)n2Cc1cccnc1` displayed a melting point of 131 to 132 °C. `Cc1cccc2c1nc(C(C)C)n2Cc1c(F)cccc1F` [Compound 34, 1-(2,6-difluorobenzyl)-2-isopropyl-4-methylbenzimidazole] gave a melting point of 151 to 153 °C. In addition, the “cytotoxicity and anti-viral effect, summary graph, result in words” value with HIV-1 WT virus (NL4-3) was “effective therapeutic dose”.

`O=C(O)c1cccc2c1nc(-c1c(F)cccc1F)n2Cc1c(F)cccc1F` [Compound 64, 1-(2,6-Difluorobenzyl)-2-(2,6-difluorophenyl)benzimidazole-4-carboxylate]: the melting point is 179 to 180 °C and 178 to 180 °C. Further, in the series with HIV-1 WT virus (NL4-3), the “inhibitory potency” value is reported as “clearly detrimental to potency” and the “EC50 (μM)” value is recorded as “NRVC”. Turning to `N#Cc1cccc2c1nc(-c1c(F)cccc1F)n2Cc1c(F)cccc1F` [Compound 4007], the “% inhibn (10 μM)” value at HIV-1 WT RT (Table 1, 10 μM drug, WT RT, rC-dG template primer) came out at 26%.

In turn, `Cc1ccc2c(nc(-c3c(F)cccc3F)n2Cc2c(F)cccc2F)c1C` gave a melting point of 176 to 177 °C. As to `Fc1cccc(F)c1Cn1c(-c2c(F)cccc2F)nc2cc(Br)ccc21` [Compound 38, 1-(2,6-Difluorobenzyl)-2-(2,6-difluorophenyl)-5-bromobenzimidazole], the melting point fell in the range of 155 to 156 °C. In addition, in the series on HIV-1 WT virus (NL4-3), the “cytotoxicity and anti-viral effect, summary graph, result in words” value was “inactive”. On to `N=C(NO)c1cccc2c1nc(-c1c(F)cccc1F)n2Cc1c(F)cccc1F` [Compound 61, N-hydroxy 1-(2,6-difluorobenzyl)-2-(2,6-difluorophenyl)benzimidazole-4-carboxamidine], for which the melting point is 214 to 216 °C and 213 to 216 °C. The “inhibitory potency” value with HIV-1 WT virus (NL4-3) is “clearly detrimental to potency”. In the series with HIV-1 WT virus (NL4-3) (setting [1]), the EC50 amounted to 190 nM. `O=[N+]([O-])c1ccc2c(c1)nc(-c1c(F)cccc1F)n2Cc1c(F)cccc1F` had a melting point of 168 to 169 °C.

`Cc1cccc2c1nc(-c1ccncc1)n2Cc1c(F)cccc1F`: the melting point was in the range of 171 to 172 °C. For the compound `Cc1cccc2c1nc(CO)n2Cc1c(F)cccc1F` [Compound 48, 1-(2,6-difluorobenzyl)-2-hydroxymethyl-4-methylbenzimidazole], the inhibition at 10 µM at HIV-1 WT RT (Table 3, 10 μM drug, WT RT, rC-dG template primer) came to 12%. For the same compound, at HIV-1 WT RT (Table 6, 1 μM drug, WT HIV-1 RT, average of two experiments done in triplicates), the “% inhibn (1 μM)” value was 51%. Also, the IC50 at HIV-1 WT RT (Table 11, WT RT, read-out: IC50) was 1880 nM. Also, the EC50 in the series with HIV-1 WT virus (NL4-3) is 2400 nM. With `Cc1ccc2c(c1)nc(-c1c(F)cccc1F)n2Cc1c(F)cccc1F`, the melting point lay in the range of 147 to 149 °C. In the case of `Cc1cccc2c1nc(-c1ccc3ccccc3c1)n2Cc1c(F)cccc1F`, the melting point fell in the range of 175 to 176 °C.

As to `Fc1cccc(F)c1Cn1c(-c2ccccc2)nc2ccccc21`, the melting point came out at 163 °C.

For `Cc1cccc2c1nc(-c1cccc3ccccc13)n2Cc1c(F)cccc1F` [Compound 37, 1-(2,6-difluorobenzyl)-2-(1-naphthyl)-4-methylbenzimidazole], the melting point fell in the range of 121 to 123 °C. Regarding `CC(C)(O)c1cccc2c1nc(-c1c(F)cccc1F)n2Cc1c(F)cccc1F` [Compound 65, 1-(2,6-Difluorobenzyl)-2-(2,6-difluorophenyl)-4-benzimidazoyl-2-propanol], the EC50 in the series on HIV-1 WT virus (NL4-3) stood at 6340 nM. The compound `Fc1cccc(F)c1Cn1c(-c2c(F)cccc2F)nc2ccc(Cl)cc21` registered a melting point of 152 to 153 °C. In the case of `CC(=O)NCc1cccc2c1nc(-c1c(F)cccc1F)n2Cc1c(F)cccc1F` [Compound 72], the “EC50 (μM)” value with HIV-1 WT virus (NL4-3) is listed as “NRVC”. In turn, `COC(=O)c1cccc2c1nc(-c1c(F)cccc1F)n2Cc1c(F)cccc1F` gave a melting point of 184 to 186 °C. As to `Fc1cccc(F)c1COCc1nc2ccccc2n1Cc1c(F)cccc1F` [Compound 32, 1-(2,6-difluorobenzyl)-2-(2,6-difluorobenzyloxymethyl)benzimidazole], the melting point is 109 °C. For the compound `Fc1cccc(F)c1Cn1c(-c2c(F)cccc2F)nc2c(CCl)cccc21` [Compound 69, 1-(2,6-difluorobenzyl)-2-(2,6-difluorophenyl)-4-chloromethylbenzimidazole], the melting point is 143 to 144 °C. The EC50 in the series with HIV-1 WT virus (NL4-3) (setting [1]) was 180 nM. As to `Cc1cccc2nc(-c3c(F)cccc3F)n(Cc3c(F)cccc3F)c12`, the melting point was 177 °C and 177 to 178 °C. Consider `Oc1cccc2c1nc(-c1c(F)cccc1F)n2Cc1c(F)cccc1F` [Compound 52, 1-(2,6-Difluorobenzyl)-2-(2,6-difluorophenyl)-4-hydroxyl-benzimidazole], for which the melting point is 257 to 259 °C. Also, in the series with HIV-1 WT virus (NL4-3) (setting [1]), the EC50 came to 650 nM. For the compound `Cc1ccc2nc(-c3c(F)cccc3F)n(Cc3c(F)cccc3F)c2c1`, the melting point lay in the range of 172 to 173 °C. Regarding `CC(=O)N(C)Cc1cccc2c1nc(-c1c(F)cccc1F)n2Cc1c(F)cccc1F` [Compound 73, 1-(2,6-Difluorobenzyl)-2-(2,6-difluorophenyl)-4-(N-acetyl-N-methyl)-aminomethylbenzimidazole], the EC50 with HIV-1 WT virus (NL4-3) was 580 nM.
